Patent US20150374676A1, “HELICASE-PRIMASE INHIBITORS FOR USE IN A METHOD OF TREATING ALZHEIMER'S DISEASE” (AICURIS GMBH & CO. KG, priority 2013, published 2015)

Columns and labels:
HSV-1 [1] = conditions: HSV-1-infected cell cultures; cited from earlier work
[2] = in vivo; cited from earlier work
HSV-1 [3] = assay: HSV-1 infected SH-SY5Y cells, immunocytochemistry for HSV-1 proteins, Aβ and P-tau; type: cell-based, herpes simplex virus type 1; conditions: MOI 0.01 pfu/cell, 24 h; for staining for Aβ / staining for P-tau: 0.025-25 μM
Experimental: (§1) SH-SY5Y cells were infected with HSV-1 at 0.01 plaque forming units (pfu) per cell [pfu/cell] for 24 hours and treated with varying concentrations of ACV and/or the exemplary compound according to Formula (I). Subsequently, cells were fixed and examined for HSV-1 proteins (A), Aβ (B) and P-tau (C) by immunocytochemistry. 1=vehicle; 2-5=increasing concentrations of the exemplary compound according to Formula (I) [0.025, 0.25, 2.5, 25 μM]; 6-9=increasing concentrations of acyclovir [0.025, 0.25, 2.5, 25 μM].
(§2) The inventors have compared the efficacy of the exemplary compound according to Formula (I) with that of ACV in respect to Aβ and P-tau accumulation in HSV-1 infected cells. African green monkey kidney (Vero) cells or human neuroblastoma (SH-SY5Y) cells were infected with HSV-1 at a multiplicity of infection (MOI) of 0.01 plaque forming units (pfu) per cell [pfu/cell] for 24 hours and were treated with the exemplary compound according to Formula (I), or ACV. The antiviral agents were added at the time of infection and remained throughout the infection. Infection led to typical cytopathic effects (clustering of infected cells positive for HSV-1 protein staining (FIGS. 1A and 2 A, panel 1)).

HSV-1 [4] = assay: HSV-1 infected Vero cells, immunocytochemistry for HSV-1 proteins, Aβ and P-tau; type: cell-based, herpes simplex virus type 1; conditions: MOI 0.01 pfu/cell, 24 h; for staining for Aβ / staining for P-tau: 0.025-25 μM
Experimental: as §1, with “Vero” for “SH-SY5Y”, “Aβ(B)” for “Aβ (B)”
as §2

[5] = cited from earlier work
HSV = assay: murine HSV skin infection model; type: in vivo; conditions: oral doses of 5 mg/kg or higher once daily for four days; data not shown
Experimental: To assess the pharmacokinetic/pharmacodynamic profile the effective dose of the specific free base of N-[5-(aminosulfonyl)-4-methyl-1,3-thiazol-2-yl]-N-methyl-2-[4-(2-pyridinyl)phenyl]-acetamide was validated in a murine HSV skin infection model and associated plasma concentrations were determined (data not shown).
(§3) In healthy male volunteers these plasma concentrations were covered by a single dose of 40 mg as free base equivalent to the crystalline mono mesylate monohydrate salt of N-[5-(aminosulfonyl)-4-methyl-1,3-thiazol-2-yl]-N-methyl-2-[4-(2-pyridinyl)phenyl]-acetamide (see FIG. 4) and at steady state by daily doses of 25 mg as free base equivalent (see FIG. 5) for 21 days.

[6] = absolute bioavailability after oral administration; conditions: in vivo; oral administration of the mono mesylate monohydrate salt in a composition of the invention; human; read-out: absolute bioavailability of the free base
From the text: In yet another aspect of the invention said absolute bioavailability of 70%±30% of the resultant free base form of N-[5-(aminosulfonyl)-4-methyl-1,3-thiazol-2-yl]-N-methyl-2-[4-(2-pyridinyl)-phenyl]acetamide is achieved in a human.
In the context of the present invention the term “bioavailability” denotes a subcategory of absorption. Bioavailability denotes the fraction of an administered oral dose of the crystalline N-[5-(aminosulfonyl)-4-methyl-1,3-thiazol-2-yl]-N-methyl-2-[4-(2-pyridinyl)-phenyl]acetamide mono methanesulfonic acid monohydrate of the invention that reaches the systemic circulation of a subject as the resultant free base form of N-[5-(aminosulfonyl)-4-methyl-1,3-thiazol-2-yl]-N-methyl-2-[4-(2-pyridinyl)-phenyl]acetamide. By definition, when a medication is administered intravenously, its bioavailability is 100%. However, when a medication is administered via other routes (such as orally), its bioavailability generally decreases (due to incomplete absorption and first-pass metabolism) or may vary from individual to individual. Bioavailability is one of the essential tools in pharmacokinetics, as bioavailability must be considered when calculating dosages for non-intravenous routes of administration.

[7] = safety and tolerability in single and multiple dose phase I trials; type: in vivo, human; conditions: healthy male volunteers, single dose and daily doses for 21 days
Experimental: The results were compared with the effective concentration of the free base of N-[5-(aminosulfonyl)-4-methyl-1,3-thiazol-2-yl]-N-methyl-2-[4-(2-pyridinyl)phenyl]acetamide in cell culture and correlated to exposures reached in healthy male volunteers in single and multiple dose phase I trials (see FIGS. 4-7).
as §3

[8] = higher concentrations 0.25, 2.5, 25 μM

bioavailability [6] | SMILES | HSV-1 induced accumulation of Aβ and P-tau (HSV-1 [1]) | oral bioavailability [2] | cluster size of HSV-1 infected cells (HSV-1 protein staining) (HSV-1 [3]; 0.025 μM) | staining for Aβ (HSV-1 [3]) | staining for P-tau (HSV-1 [3]) | cluster size of HSV-1 infected cells (HSV-1 protein staining) (HSV-1 [3]; [8]) | cluster size of HSV-1 infected cells (HSV-1 protein staining) (HSV-1 [4]; 0.025 μM) | staining for Aβ (HSV-1 [4]) | staining for P-tau (HSV-1 [4]) | cluster size of HSV-1 infected cells (HSV-1 protein staining) (HSV-1 [4]; [8]) | water solubility [5] | suppression of murine HSV skin infection (HSV) | antibody staining to HSV-1 proteins, Aβ and P-tau (HSV-1 [3]) | antibody staining to HSV-1 proteins, Aβ and P-tau (HSV-1 [4]) | safety and tolerability [7]
– | Nc1nc2c(ncn2COCCO)c(=O)[nH]1 [ACV, acyclovir, reference compound] | reduced the virus-induced accumulation of Aβ and P-tau | 15-30% | little effect on cluster sizes | still visible at higher concentrations of ACV | still visible at higher concentrations of ACV | reduced their sizes but less so than did the treatment with equimolar exemplary compound according to Formula (I) | little effect on cluster sizes | still visible at higher concentrations of ACV | still visible at higher concentrations of ACV | reduced their sizes but less so than did the treatment with equimolar exemplary compound according to Formula (I) | poorly water-soluble | – | – | – | –
70% | Cc1nc(N(C)C(=O)Cc2ccc(-c3ccccn3)cc2)sc1S(N)(=O)=O [N-[5-(aminosulfonyl)-4-methyl-1,3-thiazol-2-yl]-N-methyl-2-[4-(2-pyridinyl)phenyl]acetamid] | – | – | slightly smaller compared to control | reduced | reduced | clusters disappear and only occasionally infected cells could be detected | slightly smaller compared to control | reduced | reduced | clusters disappear and only occasionally infected cells could be detected | – | completely suppressed | total or almost total removal of antibody staining | total or almost total removal of antibody staining | safe and well tolerated up to the highest dose tested
